# Measurements reported in patent US7125990B2, “Imidazolyl derivatives as corticotropin releasing factor inhibitors” (Bristol-Myers Squibb COmpany, priority 2001, dated 2006).
# Biological target: T1, CRF1 receptors (Homo sapiens, UniProt P34998)
# T1 construct: endogenous in cells; host or cells: IMR-32 cells, transformed with 2.5 µM 5'-bromo-2'-deoxyuridine for 10 days; membrane preparation
# T1 sequence (P34998 24-415): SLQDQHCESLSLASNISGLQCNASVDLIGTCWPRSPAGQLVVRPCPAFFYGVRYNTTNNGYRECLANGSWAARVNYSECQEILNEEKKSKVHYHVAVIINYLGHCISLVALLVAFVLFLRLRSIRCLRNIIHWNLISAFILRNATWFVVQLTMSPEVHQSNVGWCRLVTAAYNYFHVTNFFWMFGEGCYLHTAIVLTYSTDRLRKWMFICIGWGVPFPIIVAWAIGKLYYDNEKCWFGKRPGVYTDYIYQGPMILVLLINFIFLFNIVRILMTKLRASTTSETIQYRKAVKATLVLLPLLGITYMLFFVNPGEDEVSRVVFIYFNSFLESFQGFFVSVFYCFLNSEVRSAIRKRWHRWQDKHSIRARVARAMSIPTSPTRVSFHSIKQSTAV
# Assay: CRF1 receptor radioligand binding assay ([125I]-oCRF competition, IMR-32 cell membranes)
# Conditions: IMR-32 cell membranes, [125I]-oCRF 100 pM; read-out: Ki (CRF-1R)
# Method: CRF1 receptor antagonists, by occupying the same receptors, blocks the accessibility of the receptors to CRF, a hypothalamic factor mediating body's responses to physiological and psychological stress. The following radioligand binding assay examines the ability of the antagonists to bind the CRF1 receptors by assessing their ability to compete with binding of CRF to the receptors in cell membrane.
# Tissue culture and membrane preparation. IMR-32 cells were grown at 37° C. in 5% CO2 as a monolayer in medium consisting of MEM supplemented with 10% heat-inactivated fetal bovine serum, 0.1 mM nonessential amino acids, 1 mM sodium pyruvate and 2 mM L-glutamine. […] After transformation, cells were rinsed twice with phosphate-buffered saline, and incubated for 10–15 min. at 4° C. in homogenization buffer consisting of 50 mM Tris (pH 7.2), 10 mM MgCl2 and 2 mM EGTA. Cells were transferred from plates to polypropylene tubes (16×100 mm), homogenized and centrifuged at 32,000×g for 15 min. Pellets were resuspended by homogenization in buffer and centrifuged at 32,000×g for 15 min. Pellets were resuspended in homogenization buffer then stored at −80° C. until needed.
# Radioligand binding assays. […] The assay buffer consisted of 50 mM Tris (pH 7.2), 10 mM MgCl2, 0.5% BSA, 0.005% Triton X-100, 10 μg/mL aprotinin and 10 μg/mL leupeptin. Assays were stopped by addition of ice-cold wash buffer (50 mM Tris, pH 7.4 and 0.2% BSA). Filtration over glass fiber filters (Whatman GF/B) previously soaked in 50 mM Tris, pH 7.2 and 1% BSA was carried out using a Brandel cell harvester. Filters were washed with 10 mL of ice-cold wash buffer. Non-specific binding was defined with 10 μM oCRF. IC50 values for oCRF and test compounds were calculated by nonlinear regression using a one-site binding curve (GraphPad Prism).
row,Compound,Ki [nM]
1,"CCCN(CC1CC1)C(=O)c1c(C)nc2n1CCN2c1c(C)cc(C)cc1C [Example 1, 2-Methyl-7-(2,4,6-trimethyl-phenyl)-6,7-dihydro-5H-imidazo[1,2-α]imidazole-3-carboxylic acid cyclopropylmethyl-propyl-amide]",< 1000
2,"CCCN(CC1CC1)C(=O)c1c(CC)nc2n1CCN2c1c(C)cc(C)cc1C [Example 2, 2-Ethyl-7-(2,4,6-trimethyl-phenyl)-6,7-dihydro-5H-imidazo[1,2-α]imidazole-3-carboxylic acid cyclopropylmethyl-propyl-amide]",< 100
3,"CCc1nc2n(c1C(=O)N(CC1CC1)CC(F)(F)F)CCN2c1c(C)cc(C)cc1C [Example 5, 2-Ethyl-7-(2,4,6-trimethyl-phenyl)-6,7-dihydro-5H-imidazo[1,2-a]imidazole-3-carboxylic acid cyclopropylmethyl-(2,2,2-trifluoro-ethyl)-amide]",< 100
4,"CCCN(CC(F)(F)F)C(=O)c1c(CC)nc2n1CCN2c1c(C)cc(C)cc1C [Example 6, 2-Ethyl-7-(2,4,6-trimethyl-phenyl)-6,7-dihydro-5H-imidazo[1,2-a]imidazole-3-carboxylic acid propyl-(2,2,2-trifluoro-ethyl)-amide]",< 100
5,"CCc1nc2n(c1C(=O)N(CC1CC1)CC(F)(F)C(F)(F)F)CCN2c1c(C)cc(C)cc1C [Example 7, 2-Ethyl-7-(2,4,6-trimethyl-phenyl)-6,7-dihydro-5H-imidazo[1,2-a]imidazole-3-carboxylic acid cyclopropylmethyl-(3,3,3,2,2-pentafluoro-propyl)-amide]",< 100
6,"CCc1nc2n(c1C(=O)N(CC1CC1)CC1CC1)CCN2c1c(C)cc(C)cc1C [Example 8, 2-Ethyl-7-(2,4,6-trimethyl-phenyl)-6,7-dihydro-5H-imidazo[1,2-a]imidazole-3-carboxylic acid cyclopropylmethyl-(cyclopropylmethyl)-amide]",< 100
7,"CCc1nc2n(c1C(=O)N(CCC(F)(F)F)CC1CC1)CCN2c1c(C)cc(C)cc1C [Example 9, 2-Ethyl-7-(2,4,6-trimethyl-phenyl)-6,7-dihydro-5H-imidazo[1,2-a]imidazole-3-carboxylic acid cyclopropylmethyl-(3,3,3-trifluoro-propyl)-amide]",< 100
8,"CCc1nc2n(c1C(=O)N(CC)CC1CC1)CCN2c1c(C)cc(C)cc1C [Example 10, 2-Ethyl-7-(2,4,6-trimethyl-phenyl)-6,7-dihydro-5H-imidazo[1,2-a]imidazole-3-carboxylic acid cyclopropylmethyl-(ethyl)-amide]",< 100
9,"CCCN(CCC)C(=O)c1c(CC)nc2n1CCN2c1c(C)cc(C)cc1C [Example 11, 2-Ethyl-7-(2,4,6-trimethyl-phenyl)-6,7-dihydro-5H-imidazo[1,2-a]imidazole-3-carboxylic acid dipropyl-amide]",< 1000
10,"CCCN(CCC(F)(F)F)C(=O)c1c(CC)nc2n1CCN2c1c(C)cc(C)cc1C [Example 12, 2-Ethyl-7-(2,4,6-trimethyl-phenyl)-6,7-dihydro-5H-imidazo[1,2-a]imidazole-3-carboxylic acid propyl-(3,3,3-trifluoropropyl)-amide]",< 1000
11,"CCCN(CCc1ccccc1)C(=O)c1c(CC)nc2n1CCN2c1c(C)cc(C)cc1C [Example 13, 2-Ethyl-7-(2,4,6-trimethyl-phenyl)-6,7-dihydro-5H-imidazo[1,2-a]imidazole-3-carboxylic acid phenethyl-propyl-amide]",< 1000
12,"CCc1nc2n(c1C(=O)N(CCC(F)(F)F)Cc1ccc(Cl)cc1)CCN2c1c(C)cc(C)cc1C [Example 14, 2-Ethyl-7-(2,4,6-trimethyl-phenyl)-6,7-dihydro-5H-imidazo[1,2-a]imidazole-3-carboxylic acid (4-chloro-benzyl)-(3,3,3-trifluoro-propyl)-amide]",< 1000
13,"CCCCN(CC)C(=O)c1c(CC)nc2n1CCN2c1c(C)cc(C)cc1C [Example 15, 2-Ethyl-7-(2,4,6-trimethyl-phenyl)-6,7-dihydro-5H-imidazo[1,2-a]imidazole-3-carboxylic acid butyl-ethyl-amide]",< 1000
14,"CCc1nc2n(c1C(=O)N(CC)CCC1CC1)CCN2c1c(C)cc(C)cc1C [Example 16, 2-Ethyl-7-(2,4,6-trimethyl-phenyl)-6,7-dihydro-5H-imidazo[1,2-a]imidazole-3-carboxylic acid (2-cyclopropyl-ethyl)-ethyl-amide]",< 1000
15,"CCc1nc2n(c1C(=O)N(CCC1CC1)CCC(F)(F)F)CCN2c1c(C)cc(C)cc1C [Example 17, 2-Ethyl-7-(2,4,6-trimethyl-phenyl)-6,7-dihydro-5H-imidazo[1,2-a]imidazole-3-carboxylic acid (2-cyclopropyl-ethyl)-(3,3,3-trifluoro-propyl)-amide]",< 1000
16,"CCc1nc2n(c1C(=O)N(CCC(F)(F)F)Cc1ccccc1)CCN2c1c(C)cc(C)cc1C [Example 18, 2-Ethyl-7-(2,4,6-trimethyl-phenyl)-6,7-dihydro-5H-imidazo[1,2-a]imidazole-3-carboxylic acid benzyl-(3,3,3-trifluoro-propyl)-amide]",< 1000
17,"C=CCN(CCC)C(=O)c1c(CC)nc2n1CCN2c1c(C)cc(C)cc1C [Example 19, 2-Ethyl-7-(2,4,6-trimethyl-phenyl)-6,7-dihydro-5H-imidazo[1,2-a]imidazole-3-carboxylic acid allyl-propyl-amide]",< 1000
18,"CCCN(CCC1CC1)C(=O)c1c(CC)nc2n1CCN2c1c(C)cc(C)cc1C [Example 20, 2-Ethyl-7-(2,4,6-trimethyl-phenyl)-6,7-dihydro-5H-imidazo[1,2-a]imidazole-3-carboxylic acid (2-cyclopropyl-ethyl)-propyl-amide]",< 1000
19,"CCCN(Cc1ccc(Cl)cc1)C(=O)c1c(CC)nc2n1CCN2c1c(C)cc(C)cc1C [Example 21, 2-Ethyl-7-(2,4,6-trimethyl-phenyl)-6,7-dihydro-5H-imidazo[1,2-a]imidazole-3-carboxylic acid (4-chloro-benzyl)-propyl-amide]",< 10000
20,"C=CCN(CC=C)C(=O)c1c(CC)nc2n1CCN2c1c(C)cc(C)cc1C [Example 22, 2-Ethyl-7-(2,4,6-trimethyl-phenyl)-6,7-dihydro-5H-imidazo[1,2-a]imidazole-3-carboxylic acid diallylamide]",< 10000
21,"CCc1nc2n(c1C(=O)N(CCc1ccccc1)CCC(F)(F)F)CCN2c1c(C)cc(C)cc1C [Example 23, 2-Ethyl-7-(2,4,6-trimethyl-phenyl)-6,7-dihydro-5H-imidazo[1,2-a]imidazole-3-carboxylic acid phenethyl-(3,3,3-trifluoro-propyl)-amide]",< 10000
22,"CCc1nc2n(c1C(=O)N(CCC(F)(F)F)Cc1cccc(F)c1)CCN2c1c(C)cc(C)cc1C [Example 24, 2-Ethyl-7-(2,4,6-trimethyl-phenyl)-6,7-dihydro-5H-imidazo[1,2-a]imidazole-3-carboxylic acid (3-fluoro-benzyl)-(3,3,3-trifluoro-propyl)-amide]",< 10000
23,"CCCN(Cc1ccccc1)C(=O)c1c(CC)nc2n1CCN2c1c(C)cc(C)cc1C [Example 25, 2-Ethyl-7-(2,4,6-trimethyl-phenyl)-6,7-dihydro-5H-imidazo[1,2-a]imidazole-3-carboxylic acid benzyl-propyl-amide]",< 10000
24,"CCCN(Cc1cccc(F)c1)C(=O)c1c(CC)nc2n1CCN2c1c(C)cc(C)cc1C [Example 26, 2-Ethyl-7-(2,4,6-trimethyl-phenyl)-6,7-dihydro-5H-imidazo[1,2-a]imidazole-3-carboxylic acid (3-fluoro-benzyl)-propyl-amide]",< 10000
25,"CCc1nc2n(c1C(=O)N(CC1CC1)CC(F)(F)F)CCN2c1c(C)cc(C)cc1Cl [Example 27, 7-(2-Chloro-4,6-dimethyl-phenyl)-2-ethyl-6,7-dihydro-5H-imidazo[1,2-a]imidazole-3-carboxylic acid cyclopropylmethyl-(2,2,2-trifluoro-ethyl)-amide]",< 100
26,"CCCN(CC1CC1)C(=O)c1c(CC)nc2n1CCN2c1c(C)cc(C)cc1Cl [Example 28, 7-(2-Chloro-4,6-dimethyl-phenyl)-2-ethyl-6,7-dihydro-5H-imidazo[1,2-a]imidazole-3-carboxylic acid cyclopropylmethyl-propyl-amide]",< 100
